Assay [1] concerns the target T1, ABL1(F317L)-phosphorylated (Homo sapiens, UniProt P00519, F317L).
T1 construct: purchased Eurofins DiscoverX KINOMEscan (scanTK)
Briefly: KINOMEscan ScanTK. The class given is binding.

For assay [2], the target named is T2, ABL1(M351T)-phosphorylated (Homo sapiens, UniProt P00519, M351T).
T2 construct: purchased Eurofins DiscoverX KINOMEscan (scanTK)
Briefly: KINOMEscan ScanTK. It counts as binding.

Assay [3] deals with T3, ABL1(T315I)-nonphosphorylated (Homo sapiens, UniProt P00519, T315I).
T3 construct: purchased Eurofins DiscoverX KINOMEscan (scanTK)
As to the kind of experiment: KINOMEscan ScanTK. The class given is binding.

For assay [4], the target named is T4, DDR1 (Homo sapiens, UniProt Q08345).
T4 construct: purchased Eurofins DiscoverX KINOMEscan (scanTK)
Briefly: KINOMEscan ScanTK. It counts as binding.

For assay [5], the target named is T5, DDR2 (Homo sapiens, UniProt Q16832).
T5 construct: purchased Eurofins DiscoverX KINOMEscan (scanTK)
T5 sequence (Q16832 22-855): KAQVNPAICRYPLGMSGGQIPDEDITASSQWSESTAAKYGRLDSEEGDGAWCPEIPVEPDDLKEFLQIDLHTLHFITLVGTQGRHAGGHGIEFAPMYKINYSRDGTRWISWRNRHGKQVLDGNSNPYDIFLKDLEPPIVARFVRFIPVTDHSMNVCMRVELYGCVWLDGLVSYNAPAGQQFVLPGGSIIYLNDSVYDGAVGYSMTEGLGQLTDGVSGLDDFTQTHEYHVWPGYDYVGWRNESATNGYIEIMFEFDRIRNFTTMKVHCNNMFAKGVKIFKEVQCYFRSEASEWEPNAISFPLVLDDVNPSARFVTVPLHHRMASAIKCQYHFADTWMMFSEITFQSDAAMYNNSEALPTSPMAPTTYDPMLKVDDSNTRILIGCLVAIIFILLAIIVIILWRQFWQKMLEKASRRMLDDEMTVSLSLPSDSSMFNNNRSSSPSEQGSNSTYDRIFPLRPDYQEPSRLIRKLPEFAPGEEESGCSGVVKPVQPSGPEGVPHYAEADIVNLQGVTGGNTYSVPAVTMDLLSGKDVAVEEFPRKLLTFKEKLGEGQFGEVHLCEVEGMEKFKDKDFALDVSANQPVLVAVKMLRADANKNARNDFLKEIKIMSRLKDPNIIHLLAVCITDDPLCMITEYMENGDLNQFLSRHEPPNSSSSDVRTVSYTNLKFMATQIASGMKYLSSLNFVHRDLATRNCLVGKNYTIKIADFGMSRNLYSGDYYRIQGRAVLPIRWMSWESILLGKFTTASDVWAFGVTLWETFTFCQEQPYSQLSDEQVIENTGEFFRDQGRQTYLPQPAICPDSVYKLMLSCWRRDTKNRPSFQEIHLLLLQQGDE
As to the kind of experiment: KINOMEscan ScanTK. It counts as binding.

The target of assay [6] is T6, FGR (Homo sapiens, UniProt P09769).
T6 construct: purchased Eurofins DiscoverX KINOMEscan (scanTK)
Briefly: KINOMEscan ScanTK. It counts as binding.

Assay [7] addresses T7, ITK (Homo sapiens, UniProt Q08881).
T7 construct: purchased Eurofins DiscoverX KINOMEscan (scanTK)
T7 sequence (Q08881 1-620): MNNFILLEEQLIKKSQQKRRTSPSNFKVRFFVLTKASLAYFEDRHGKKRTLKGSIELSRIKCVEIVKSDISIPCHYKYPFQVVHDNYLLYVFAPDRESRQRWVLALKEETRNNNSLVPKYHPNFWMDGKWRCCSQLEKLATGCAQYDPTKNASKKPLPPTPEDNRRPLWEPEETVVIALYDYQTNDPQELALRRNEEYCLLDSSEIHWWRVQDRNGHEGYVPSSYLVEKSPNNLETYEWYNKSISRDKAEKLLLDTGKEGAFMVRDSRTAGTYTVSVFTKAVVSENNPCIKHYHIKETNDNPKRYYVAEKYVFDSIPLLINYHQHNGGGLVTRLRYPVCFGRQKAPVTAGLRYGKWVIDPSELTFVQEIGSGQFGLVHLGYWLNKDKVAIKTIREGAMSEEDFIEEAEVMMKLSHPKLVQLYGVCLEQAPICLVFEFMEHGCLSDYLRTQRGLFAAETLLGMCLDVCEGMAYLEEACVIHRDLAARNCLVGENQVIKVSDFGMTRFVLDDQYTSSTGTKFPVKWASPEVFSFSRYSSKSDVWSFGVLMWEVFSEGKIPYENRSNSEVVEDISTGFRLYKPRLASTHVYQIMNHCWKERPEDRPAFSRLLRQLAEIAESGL
As to the kind of experiment: KINOMEscan ScanTK. The following applies: for difference in %Control versus compound Ib at 1 µM / remaining binding at 1 µM: ITK; for inhibition at 1 µM: ScanTK. The class given is binding.

For assay [8], the target named is T8, KIT-autoinhibited (Homo sapiens, UniProt P10721).
T8 construct: purchased Eurofins DiscoverX KINOMEscan (scanTK)
As to the kind of experiment: KINOMEscan ScanTK. It counts as binding.

For assay [9], the system named is BTK Y223 phosphorylation. Briefly: Immunoblotting, anti-IgM-induced signaling in OCI-LY7 cells. The following applies: 500 nM, 1 h. A general note: In western blotting, separated proteins are transferred to a membrane and probed.
Method: We also investigated the effects of the compounds (at 500 nM) on sIgM signaling by analyzing the phosphorylation status of key signaling molecules activated downstream of the BCR.
Secondary antibodies were horseradish peroxidase-conjugated antibodies (GE Healthcare). Images were captured using the Amersham ImageQuant 800 System and quantified using ImageJ (http://imagej.nih.gov/ij/). Expression of phosphorylated proteins was normalized to the equivalent total protein with values for DMSO/anti-IgM set to 100%.
Where [10] appears, read: @1000nM, DDR2, read-out: %Control.
The mark [11] stands for this setting: DDR2, read-out: %Control @1000nM.

Broadly, the inhibition is the relative decrease from the control value, in per cent.

Where two headings read alike, the source gives them in different places.

T6 sequence (P09769 whole entry): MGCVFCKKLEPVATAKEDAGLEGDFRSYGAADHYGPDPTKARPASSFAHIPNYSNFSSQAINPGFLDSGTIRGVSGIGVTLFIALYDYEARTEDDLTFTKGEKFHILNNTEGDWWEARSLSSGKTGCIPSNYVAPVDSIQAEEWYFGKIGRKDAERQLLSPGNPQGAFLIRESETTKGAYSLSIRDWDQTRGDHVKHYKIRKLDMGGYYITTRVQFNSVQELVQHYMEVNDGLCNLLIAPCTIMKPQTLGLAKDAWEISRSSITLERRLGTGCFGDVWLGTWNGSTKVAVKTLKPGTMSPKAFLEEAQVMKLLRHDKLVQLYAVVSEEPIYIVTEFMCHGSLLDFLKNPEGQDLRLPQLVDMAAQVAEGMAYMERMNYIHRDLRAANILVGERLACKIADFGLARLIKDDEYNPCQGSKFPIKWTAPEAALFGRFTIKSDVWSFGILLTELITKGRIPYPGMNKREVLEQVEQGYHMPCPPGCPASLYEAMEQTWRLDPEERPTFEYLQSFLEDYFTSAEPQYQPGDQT
T4 sequence (Q08345 19-913): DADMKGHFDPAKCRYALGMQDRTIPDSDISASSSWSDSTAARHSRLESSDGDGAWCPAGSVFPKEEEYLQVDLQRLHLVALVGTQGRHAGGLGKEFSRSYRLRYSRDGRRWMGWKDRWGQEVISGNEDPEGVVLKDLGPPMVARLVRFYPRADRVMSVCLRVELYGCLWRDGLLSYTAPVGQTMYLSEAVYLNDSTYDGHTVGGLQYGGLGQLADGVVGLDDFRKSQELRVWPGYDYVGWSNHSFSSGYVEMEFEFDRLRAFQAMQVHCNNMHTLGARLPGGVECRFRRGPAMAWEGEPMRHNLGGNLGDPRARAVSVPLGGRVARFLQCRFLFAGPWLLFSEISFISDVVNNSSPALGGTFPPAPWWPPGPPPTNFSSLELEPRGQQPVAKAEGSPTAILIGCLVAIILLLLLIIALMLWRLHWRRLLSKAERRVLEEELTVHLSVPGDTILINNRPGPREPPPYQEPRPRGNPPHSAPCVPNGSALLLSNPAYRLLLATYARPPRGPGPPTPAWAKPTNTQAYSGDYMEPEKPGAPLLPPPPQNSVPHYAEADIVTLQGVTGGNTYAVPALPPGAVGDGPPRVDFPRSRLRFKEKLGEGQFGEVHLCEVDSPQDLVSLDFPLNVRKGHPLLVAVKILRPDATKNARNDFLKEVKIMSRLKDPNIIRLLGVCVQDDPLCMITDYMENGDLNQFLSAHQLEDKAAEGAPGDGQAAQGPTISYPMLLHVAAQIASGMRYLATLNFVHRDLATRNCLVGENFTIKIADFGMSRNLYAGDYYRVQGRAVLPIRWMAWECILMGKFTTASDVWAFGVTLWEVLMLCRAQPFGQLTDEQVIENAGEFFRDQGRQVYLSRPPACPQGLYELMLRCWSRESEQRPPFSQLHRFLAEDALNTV
T8 sequence (P10721 26-976): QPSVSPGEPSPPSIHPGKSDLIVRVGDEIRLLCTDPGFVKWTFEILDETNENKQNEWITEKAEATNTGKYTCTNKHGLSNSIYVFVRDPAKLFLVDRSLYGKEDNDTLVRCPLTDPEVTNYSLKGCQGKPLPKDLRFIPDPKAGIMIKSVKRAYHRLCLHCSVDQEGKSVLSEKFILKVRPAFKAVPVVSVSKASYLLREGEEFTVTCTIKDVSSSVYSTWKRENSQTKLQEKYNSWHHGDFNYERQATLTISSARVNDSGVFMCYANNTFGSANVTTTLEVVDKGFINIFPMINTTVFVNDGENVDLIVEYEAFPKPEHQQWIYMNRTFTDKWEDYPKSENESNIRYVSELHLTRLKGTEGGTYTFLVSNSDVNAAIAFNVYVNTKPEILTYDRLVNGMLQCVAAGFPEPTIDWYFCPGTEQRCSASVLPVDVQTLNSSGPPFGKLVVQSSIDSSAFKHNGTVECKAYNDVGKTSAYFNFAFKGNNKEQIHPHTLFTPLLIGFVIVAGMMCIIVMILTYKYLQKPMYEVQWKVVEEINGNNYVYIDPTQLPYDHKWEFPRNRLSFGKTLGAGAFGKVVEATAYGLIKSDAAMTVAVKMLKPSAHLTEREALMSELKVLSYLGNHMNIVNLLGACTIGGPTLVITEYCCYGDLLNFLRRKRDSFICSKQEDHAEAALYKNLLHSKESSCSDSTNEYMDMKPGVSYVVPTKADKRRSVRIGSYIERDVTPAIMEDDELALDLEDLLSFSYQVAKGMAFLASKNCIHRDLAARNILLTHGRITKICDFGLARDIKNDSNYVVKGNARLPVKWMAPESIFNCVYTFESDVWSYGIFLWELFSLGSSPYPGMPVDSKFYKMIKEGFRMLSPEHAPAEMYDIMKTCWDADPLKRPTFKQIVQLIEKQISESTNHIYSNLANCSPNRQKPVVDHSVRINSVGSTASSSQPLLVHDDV

Consider `CCOC(=O)c1cnc(S(C)(=O)=O)nc1N1CCC[C@@H](n2nc(-c3ccc(Oc4ccccc4)cc3)c3c(N)ncnc32)C1` [Compound 8c, Ethyl (R)-4-(3-(4-Amino-3-(4-phenoxyphenyl)-1H-pyrazolo[3,4-d]pyrimidin-1-yl)piperidin-1-yl)-2-(methylsulfonyl)pyrimidine-5-carboxylate], for which the difference in %Control from compound Ib at 1 µM in assay [1] (@1000nM) was 49%; in [2] (@1000nM) it was 12%; in [4] (@1000nM), -14%. Moreover, the remaining binding at 1 µM in assay [1] (@1000nM, read-out: %Control) is 86%; in assay [1] (read-out: %Control @1000nM), 86%; in assay [2] (@1000nM, read-out: %Control) it was 77%; in [2] (read-out: %Control @1000nM), 77%; in [3] (@1000nM, read-out: %Control), 84%; in [3] (read-out: %Control @1000nM), 84%. The remaining binding at 1 µM was determined as 64% in assay [4] (@1000nM, read-out: %Control); 64% in [4] (read-out: %Control @1000nM); 75% in [5] (setting [10]); 75% in [5] (setting [11]); 19% in [6] (@1000nM, read-out: %Control); 19% in [6] (read-out: %Control @1000nM). For the same compound, the remaining binding at 1 µM in assay [7] (@1000nM, read-out: %Control) was 88%; in assay [7] (read-out: %Control @1000nM), 88%; in assay [8] (@1000nM, read-out: %Control), 94%; in assay [8] (read-out: %Control @1000nM) it was 94%. Moreover, in assay [3] (@1000nM), the difference in % of control versus compound Ib at 1 µM is -9%. For the same compound, in assay [5] (@1000nM, DDR2), the difference in %Control from reference compound Ib at 1 µM is -22%. Further, the difference in %Control versus compound Ib at 1 µM in [6] (@1000nM) came to 13.7%; in assay [7] (@1000nM) it was 73%. In assay [7], the inhibition at 1 µM was 12%. In addition, in assay [9], the “anti-IgM-induced BTK Y223 phosphorylation” value was “selectively reduced BTK Y^223 phosphorylation”.
`Cc1cnc(S(C)(=O)=O)nc1N1CCCC(n2nc(-c3ccc(Oc4ccccc4)cc3)c3c(N)ncnc32)C1` (stereo not drawn) [Compound 8a, 1-(1-(5-Methyl-2-(methylsulfonyl)pyrimidin-4-yl)piperidin-3-yl)-3-(4-phenoxyphenyl)-1H-pyrazolo[3,4-d]pyrimidin-4-amine]: the difference in %Control from compound Ib at 1 µM in assay [1] (@1000nM) was 15%; in assay [2] (@1000nM), 0%; in assay [4] (@1000nM), 5%. Besides, the remaining binding at 1 µM in [1] (@1000nM, read-out: %Control) came out at 52%; in assay [1] (read-out: %Control @1000nM), 52%; in assay [2] (@1000nM, read-out: %Control) it was 65%; in [2] (read-out: %Control @1000nM), 65%; in [3] (@1000nM, read-out: %Control), 82%; in [3] (read-out: %Control @1000nM), 82%. Besides, the remaining binding at 1 µM in [4] (@1000nM, read-out: %Control) was 83%; in assay [4] (read-out: %Control @1000nM), 83%; in assay [5] (setting [10]) it was 92%; in assay [5] (setting [11]), 92%; in assay [6] (@1000nM, read-out: %Control) it was 8.6%; in assay [6] (read-out: %Control @1000nM), 8.6%. Further, the remaining binding at 1 µM amounted to 84% in [7] (@1000nM, read-out: %Control); 84% in [7] (read-out: %Control @1000nM); 100% in assay [8] (@1000nM, read-out: %Control); 100% in [8] (read-out: %Control @1000nM). For the same compound, in [3] (@1000nM), the difference in % of control versus compound Ib at 1 µM was -11%. Besides, in assay [5] (@1000nM, DDR2), the difference in %Control from reference compound Ib at 1 µM was -5%. Further, the difference in %Control versus compound Ib at 1 µM in assay [6] (@1000nM) amounted to 3.3%; in assay [7] (@1000nM), 69%. Besides, in assay [7], 1 µM produced 16% inhibition.
Consider `C=CC(=O)N1CCC[C@@H](n2nc(-c3ccc(Oc4ccccc4)cc3)c3c(N)ncnc32)C1` [Compound 1g, Ibrutinib, reference compound], for which the remaining binding at 1 µM is 93% in assay [3] (@1000nM, read-out: %Control); 93% in assay [3] (read-out: %Control @1000nM); 78% in assay [4] (@1000nM, read-out: %Control); 78% in assay [4] (read-out: %Control @1000nM); 97% in assay [5] (read-out: %Control); 97% in [5] (read-out: %Control @1000nM). Also, the remaining binding at 1 µM came to 15% in [7] (@1000nM, read-out: %Control); 15% in assay [7] (read-out: %Control @1000nM); 88% in assay [8] (@1000nM, read-out: %Control); 88% in assay [8] (read-out: %Control @1000nM). Besides, the “%Control @1000nM” value in assay [6] is 5.3%. Moreover, the “%Control” value in assay [6] (@1000nM) worked out at 5.3%. This compound also showed an inhibition at 1 µM in [7] of 85%. Besides, in assay [9], the “anti-IgM-induced BTK Y223 phosphorylation” value is recorded as “strongly inhibited”.
`CNC(=O)c1cnc(S(C)(=O)=O)nc1N1CCCC(n2nc(-c3ccc(Oc4ccccc4)cc3)c3c(N)ncnc32)C1` (stereo not drawn) [Compound 8d, 4-(3-(4-Amino-3-(4-phenoxyphenyl)-1H-pyrazolo[3,4-d]pyrimidin-1-yl)piperidin-1-yl)-N-methyl-2-(methylsulfonyl)pyrimidine-5-carboxamide]: the difference in %Control from compound Ib at 1 µM is 39% in [1] (@1000nM), 9% in assay [2] (@1000nM) and -14% in assay [4] (@1000nM). The remaining binding at 1 µM turned out to be 76% in assay [1] (@1000nM, read-out: %Control); 76% in assay [1] (read-out: %Control @1000nM); 74% in assay [2] (@1000nM, read-out: %Control); 74% in assay [2] (read-out: %Control @1000nM); 77% in assay [3] (@1000nM, read-out: %Control); 77% in assay [3] (read-out: %Control @1000nM). Besides, the remaining binding at 1 µM in [4] (@1000nM, read-out: %Control) was 64%; in assay [4] (read-out: %Control @1000nM), 64%; in assay [5] (setting [10]), 82%; in assay [5] (setting [11]) it was 82%; in assay [6] (@1000nM, read-out: %Control) it was 16%; in assay [6] (read-out: %Control @1000nM) it was 16%. The remaining binding at 1 µM stood at 81% in assay [7] (@1000nM, read-out: %Control); 81% in assay [7] (read-out: %Control @1000nM); 100% in assay [8] (@1000nM, read-out: %Control); 100% in assay [8] (read-out: %Control @1000nM). The difference in % of control versus compound Ib at 1 µM in assay [3] (@1000nM) is -16%. In addition, the difference in %Control from reference compound Ib at 1 µM in assay [5] (@1000nM, DDR2) is -15%. Further, the results for the difference in %Control versus compound Ib at 1 µM in assay [6] (@1000nM) and in assay [7] (@1000nM) were 10.7% and 66%, respectively. In [7], the inhibition at 1 µM was 19%.

(Values after publication PMC11345841, “Exploring 2-Sulfonylpyrimidine Warheads as Acrylamide Surrogates for Targeted Covalent Inhibition: A BTK Story” (Journal of Medicinal Chemistry, 2024).)
